From PubChem BioAssay AID1745844 (Carcinogenic Potency Database (CPDB), 2022)
Activity calls are given as the source filed them. No rule for the calls is given here.

Test system: rodent lifetime carcinogenesis bioassay, tumor incidence TD50
Experiment: carcinogenic potency in animals, long-term in vivo studies, CPDB compilation (AID 1745844)

In the case of Nc1ccc(-c2ccc(N)cc2)cc1, the TD50 (mouse, strain C57BL/6JfC3Hf/Nctr x BALB/cStCrlfC3Hf/Nctr inter se, females, in drinking water, site: Harderian gland, lesion: adenoma, dosed 143 weeks, study length 143 weeks) is reported as 41.1 mg/kg/day, the TD50 (mouse, strain C57BL/6JfC3Hf/Nctr x BALB/cStCrlfC3Hf/Nctr inter se, females, in drinking water, site: liver, lesion: hepatocellular adenoma, dosed 60 weeks, study length 60 weeks) is reported as 30.2 mg/kg/day and the TD50 (mouse, strain C57BL/6JfC3Hf/Nctr x BALB/cStCrlfC3Hf/Nctr inter se, females, in drinking water, site: liver, lesion: hepatocellular adenoma, dosed 80 weeks, study length 80 weeks) is reported as 78.7 mg/kg/day. It also gave a TD50 (mouse, strain C57BL/6JfC3Hf/Nctr x BALB/cStCrlfC3Hf/Nctr inter se, females, in drinking water, site: liver, lesion: hepatocellular carcinoma, dosed 60 weeks, study length 60 weeks) of 17.9 mg/kg/day, a TD50 (mouse, strain C57BL/6JfC3Hf/Nctr x BALB/cStCrlfC3Hf/Nctr inter se, females, in drinking water, site: liver, lesion: hepatocellular carcinoma, dosed 80 weeks, study length 80 weeks) of 9.6 mg/kg/day and a TD50 (mouse, strain C57BL/6JfC3Hf/Nctr x BALB/cStCrlfC3Hf/Nctr inter se, females, in drinking water, site: liver, lesion: hepatocellular carcinoma, dosed 143 weeks, study length 143 weeks) of 18.9 mg/kg/day. For the same compound, the TD50 (mouse, strain C57BL/6JfC3Hf/Nctr x BALB/cStCrlfC3Hf/Nctr inter se, females, in drinking water, site: uterus, lesion: angioma, dosed 143 weeks, study length 143 weeks) was 402 mg/kg/day, the TD50 (mouse, strain C57BL/6JfC3Hf/Nctr x BALB/cStCrlfC3Hf/Nctr inter se, males, in drinking water, site: Harderian gland, lesion: adenoma, dosed 143 weeks, study length 143 weeks) was 208 mg/kg/day and the TD50 (mouse, strain C57BL/6JfC3Hf/Nctr x BALB/cStCrlfC3Hf/Nctr inter se, males, in drinking water, site: liver, lesion: hepatocellular adenoma, dosed 60 weeks, study length 60 weeks) was 67.7 mg/kg/day. For the same compound, the TD50 (mouse, strain C57BL/6JfC3Hf/Nctr x BALB/cStCrlfC3Hf/Nctr inter se, males, in drinking water, site: liver, lesion: hepatocellular adenoma, dosed 80 weeks, study length 80 weeks) was 186 mg/kg/day, the TD50 (mouse, strain C57BL/6JfC3Hf/Nctr x BALB/cStCrlfC3Hf/Nctr inter se, males, in drinking water, site: liver, lesion: hepatocellular carcinoma, dosed 60 weeks, study length 60 weeks) was 74.3 mg/kg/day and the TD50 (mouse, strain C57BL/6JfC3Hf/Nctr x BALB/cStCrlfC3Hf/Nctr inter se, males, in drinking water, site: liver, lesion: hepatocellular carcinoma, dosed 80 weeks, study length 80 weeks) was 39 mg/kg/day. For the same compound, the TD50 (mouse, strain C57BL/6JfC3Hf/Nctr x BALB/cStCrlfC3Hf/Nctr inter se, males, in drinking water, site: liver, lesion: hepatocellular carcinoma, dosed 143 weeks, study length 143 weeks) was 60.5 mg/kg/day, the TD50 (mouse, strain C57BL/6JfC3Hf/Nctr x BALB/cStCrlfC3Hf/Nctr, females, in drinking water, site: Harderian gland, lesion: adenoma, dosed 143 weeks, study length 143 weeks) was 51.7 mg/kg/day and the TD50 (mouse, strain C57BL/6JfC3Hf/Nctr x BALB/cStCrlfC3Hf/Nctr, females, in drinking water, site: liver, lesion: hepatocellular adenoma, dosed 60 weeks, study length 60 weeks) was 24.7 mg/kg/day. It also gave a TD50 (mouse, strain C57BL/6JfC3Hf/Nctr x BALB/cStCrlfC3Hf/Nctr, females, in drinking water, site: liver, lesion: hepatocellular adenoma, dosed 79 weeks, study length 80 weeks) of 41.9 mg/kg/day, a TD50 (mouse, strain C57BL/6JfC3Hf/Nctr x BALB/cStCrlfC3Hf/Nctr, females, in drinking water, site: liver, lesion: hepatocellular carcinoma, dosed 60 weeks, study length 60 weeks) of 17.1 mg/kg/day and a TD50 (mouse, strain C57BL/6JfC3Hf/Nctr x BALB/cStCrlfC3Hf/Nctr, females, in drinking water, site: liver, lesion: hepatocellular carcinoma, dosed 79 weeks, study length 80 weeks) of 8.99 mg/kg/day. For the same compound, the TD50 (mouse, strain C57BL/6JfC3Hf/Nctr x BALB/cStCrlfC3Hf/Nctr, females, in drinking water, site: liver, lesion: hepatocellular carcinoma, dosed 143 weeks, study length 143 weeks) was 10.9 mg/kg/day, the TD50 (mouse, strain C57BL/6JfC3Hf/Nctr x BALB/cStCrlfC3Hf/Nctr, females, in drinking water, site: uterus, lesion: angioma, dosed 143 weeks, study length 143 weeks) was 335 mg/kg/day and the TD50 (mouse, strain C57BL/6JfC3Hf/Nctr x BALB/cStCrlfC3Hf/Nctr, males, in drinking water, site: Harderian gland, lesion: adenoma, dosed 143 weeks, study length 143 weeks) was 129 mg/kg/day. The TD50 (mouse, strain C57BL/6JfC3Hf/Nctr x BALB/cStCrlfC3Hf/Nctr, males, in drinking water, site: liver, lesion: hepatocellular adenoma, dosed 60 weeks, study length 60 weeks) was 60.8 mg/kg/day, the TD50 (mouse, strain C57BL/6JfC3Hf/Nctr x BALB/cStCrlfC3Hf/Nctr, males, in drinking water, site: liver, lesion: hepatocellular adenoma, dosed 80 weeks, study length 80 weeks) was 94.8 mg/kg/day and the TD50 (mouse, strain C57BL/6JfC3Hf/Nctr x BALB/cStCrlfC3Hf/Nctr, males, in drinking water, site: liver, lesion: hepatocellular carcinoma, dosed 60 weeks, study length 60 weeks) was 97.5 mg/kg/day. The TD50 (mouse, strain C57BL/6JfC3Hf/Nctr x BALB/cStCrlfC3Hf/Nctr, males, in drinking water, site: liver, lesion: hepatocellular carcinoma, dosed 80 weeks, study length 80 weeks) was 33.2 mg/kg/day and the TD50 (mouse, strain C57BL/6JfC3Hf/Nctr x BALB/cStCrlfC3Hf/Nctr, males, in drinking water, site: liver, lesion: hepatocellular carcinoma, dosed 143 weeks, study length 143 weeks) was 31.2 mg/kg/day.

For COc1ccc([C@@H]2CC(=O)c3c(O)cc(O[C@@H]4O[C@H](CO[C@@H]5O[C@@H](C)[C@H](O)[C@@H](O)[C@H]5O)[C@@H](O)[C@H](O)[C@H]4O)cc3O2)cc1OC, the carcinogen call (mouse, strain B6C3F1, females, in feed, site: liver, lesion: hemangioma, dosed 96 weeks, study length 104 weeks) was “negative (inactive)”, the TD50 (mouse, strain B6C3F1, females, in feed, site: liver, lesion: hemangiosarcoma, dosed 96 weeks, study length 104 weeks) was 887000 mg/kg/day (inactive) and the TD50 (mouse, strain B6C3F1, females, in feed, site: liver, lesion: hepatocellular carcinoma, dosed 96 weeks, study length 104 weeks) was 194000 mg/kg/day (inactive). The TD50 (mouse, strain B6C3F1, females, in feed, site: liver, lesion: hyperplastic nodule, dosed 96 weeks, study length 104 weeks) was 379000 mg/kg/day (inactive), the carcinogen call (mouse, strain B6C3F1, females, in feed, site: lung, lesion: adenoma, dosed 96 weeks, study length 104 weeks) was “negative (inactive)” and the carcinogen call (mouse, strain B6C3F1, males, in feed, site: liver, lesion: hemangioma, dosed 96 weeks, study length 104 weeks) was “negative (inactive)”. For the same compound, the TD50 (mouse, strain B6C3F1, males, in feed, site: liver, lesion: hepatocellular carcinoma, dosed 96 weeks, study length 104 weeks) was 146000 mg/kg/day (inactive), the TD50 (mouse, strain B6C3F1, males, in feed, site: liver, lesion: hyperplastic nodule, dosed 96 weeks, study length 104 weeks) was 416000 mg/kg/day (inactive) and the carcinogen call (mouse, strain B6C3F1, males, in feed, site: lung, lesion: adenocarcinoma, dosed 96 weeks, study length 104 weeks) was “negative (inactive)”. For the same compound, the carcinogen call (mouse, strain B6C3F1, males, in feed, site: lung, lesion: adenoma, dosed 96 weeks, study length 104 weeks) was “negative (inactive)”.

In the case of CC1=C[C@H]2O[C@@H]3[C@H](O)C[C@](C)([C@@]2(CO)[C@H](O)C1=O)[C@]31CO1, the carcinogen call (mouse, strain B6C3F1, males, in feed, site: liver, lesion: hepatocellular adenoma, dosed 104 weeks, study length 104 weeks) is reported as “negative (inactive)” and the carcinogen call (mouse, strain B6C3F1, males, in feed, site: liver, lesion: hepatocellular carcinoma, dosed 104 weeks, study length 104 weeks) is reported as “negative (inactive)”.

CCCN=[N+]([O-])CCC was tested, and the TD50 (rat, strain Sprague-Dawley, males, by gavage, site: liver, lesion: hepatocellular carcinoma, dosed 26 weeks, study length 77 weeks) was 0.00736 mg/kg/day, the TD50 (rat, strain Sprague-Dawley, males, by gavage, site: nasal cavity, lesion: esthesioneuroepithelioma, dosed 26 weeks, study length 77 weeks) was 0.000723 mg/kg/day and the TD50 (rat, strain Sprague-Dawley, males, by gavage, site: nasal cavity, lesion: papilloma, dosed 26 weeks, study length 77 weeks) was 0.00736 mg/kg/day. The TD50 (rat, strain Sprague-Dawley, males, by gavage, site: nasal cavity, lesion: several types, types named in the paper, dosed 26 weeks, study length 77 weeks) was 0.000596 mg/kg/day, the TD50 (rat, strain Sprague-Dawley, males, by gavage, site: skin, lesion: keratoacanthoma, dosed 26 weeks, study length 77 weeks) was 0.00038 mg/kg/day and the carcinogen call (rat, strain Sprague-Dawley, males, by gavage, site: skin, lesion: several types, types named in the paper, dosed 26 weeks, study length 77 weeks) was “positive”.

In the case of CC(C)(c1ccc(O)cc1)c1ccc(O)cc1, the carcinogen call (mouse, strain B6C3F1, females, in feed, site: any site (literature study), lesion: several types, types named in the paper, dosed 103 weeks, study length 107 weeks) is reported as “negative (inactive)”, the TD50 (mouse, strain B6C3F1, females, in feed, site: liver, lesion: hepatocellular adenoma + hepatocellular carcinoma + neoplastic nodule, dosed 103 weeks, study length 107 weeks) is reported as 13100 mg/kg/day and the TD50 (mouse, strain B6C3F1, females, in feed, site: lung, lesion: alveolar/bronchiolar adenoma + alveolar/bronchiolar carcinoma, dosed 103 weeks, study length 107 weeks) is reported as 41400 mg/kg/day. For the same compound, the TD50 (mouse, strain B6C3F1, males, in feed, site: all sites, lesion: leukemia + lymphoma, dosed 103 weeks, study length 107 weeks) was 445 mg/kg/day (inactive), the TD50 (mouse, strain B6C3F1, males, in feed, site: all sites, lesion: lymphoma, dosed 103 weeks, study length 107 weeks) was 508 mg/kg/day and the TD50 (mouse, strain B6C3F1, males, in feed, site: any site (literature study), lesion: several types, types named in the paper, dosed 103 weeks, study length 107 weeks) was 1.32e+06 mg/kg/day. The TD50 (mouse, strain B6C3F1, males, in feed, site: pituitary gland, lesion: chromophobe carcinoma, dosed 103 weeks, study length 107 weeks) was 6690 mg/kg/day, the carcinogen call (rat, strain Fischer 344, females, in feed, site: any site (literature study), lesion: several types, types named in the paper, dosed 103 weeks, study length 108 weeks) was “negative (inactive)” and the TD50 (rat, strain Fischer 344, females, in feed, site: liver, lesion: hepatocellular adenoma + hepatocellular carcinoma + neoplastic nodule, dosed 103 weeks, study length 108 weeks) was 595 mg/kg/day. For the same compound, the TD50 (rat, strain Fischer 344, males, in feed, site: mammary gland, lesion: fibroadenoma, dosed 103 weeks, study length 108 weeks) was 675 mg/kg/day (inactive).

CN(C)c1ccccc1 gave a TD50 (mouse, strain B6C3F1, females, by gavage, site: any site (literature study), lesion: several types, types named in the paper, dosed 103 weeks, study length 104 weeks) of 108 mg/kg/day, a TD50 (mouse, strain B6C3F1, females, by gavage, site: forestomach, lesion: squamous-cell papilloma, dosed 103 weeks, study length 104 weeks) of 99.3 mg/kg/day and a TD50 (mouse, strain B6C3F1, females, by gavage, site: liver, lesion: hepatocellular adenoma + hepatocellular carcinoma + neoplastic nodule, dosed 103 weeks, study length 104 weeks) of 163 mg/kg/day. For the same compound, the TD50 (mouse, strain B6C3F1, females, by gavage, site: lung, lesion: alveolar/bronchiolar adenoma + alveolar/bronchiolar carcinoma, dosed 103 weeks, study length 104 weeks) was 276 mg/kg/day, the TD50 (mouse, strain B6C3F1, males, by gavage, site: any site (literature study), lesion: several types, types named in the paper, dosed 103 weeks, study length 104 weeks) was 489 mg/kg/day (inactive) and the TD50 (mouse, strain B6C3F1, males, by gavage, site: liver, lesion: hepatocellular adenoma + hepatocellular carcinoma + neoplastic nodule, dosed 103 weeks, study length 104 weeks) was 216 mg/kg/day. The TD50 (mouse, strain B6C3F1, males, by gavage, site: lung, lesion: alveolar/bronchiolar adenoma + alveolar/bronchiolar carcinoma, dosed 103 weeks, study length 104 weeks) was 102 mg/kg/day, the carcinogen call (rat, strain Fischer 344, females, by gavage, site: any site (literature study), lesion: several types, types named in the paper, dosed 103 weeks, study length 104 weeks) was “negative (inactive)” and the TD50 (rat, strain Fischer 344, males, by gavage, site: any site (literature study), lesion: several types, types named in the paper, dosed 103 weeks, study length 104 weeks) was 93.2 mg/kg/day. The TD50 (rat, strain Fischer 344, males, by gavage, site: splenic red pulp, lesion: osteosarcoma + sarcoma, NOS, dosed 103 weeks, study length 104 weeks) was 125 mg/kg/day and the TD50 (rat, strain Fischer 344, males, by gavage, site: splenic red pulp, lesion: sarcoma, NOS, dosed 103 weeks, study length 104 weeks) was 175 mg/kg/day.
